Assays:
PKA = PKA (Homo sapiens, UniProt P17612); test: PKA inhibition, ADP-Glo Kinase Assay
GRK1 = target: T1, GRK1 (Homo sapiens, UniProt Q15835); test: GRK1 kinase inhibition
T1 sequence (Q15835 1-563): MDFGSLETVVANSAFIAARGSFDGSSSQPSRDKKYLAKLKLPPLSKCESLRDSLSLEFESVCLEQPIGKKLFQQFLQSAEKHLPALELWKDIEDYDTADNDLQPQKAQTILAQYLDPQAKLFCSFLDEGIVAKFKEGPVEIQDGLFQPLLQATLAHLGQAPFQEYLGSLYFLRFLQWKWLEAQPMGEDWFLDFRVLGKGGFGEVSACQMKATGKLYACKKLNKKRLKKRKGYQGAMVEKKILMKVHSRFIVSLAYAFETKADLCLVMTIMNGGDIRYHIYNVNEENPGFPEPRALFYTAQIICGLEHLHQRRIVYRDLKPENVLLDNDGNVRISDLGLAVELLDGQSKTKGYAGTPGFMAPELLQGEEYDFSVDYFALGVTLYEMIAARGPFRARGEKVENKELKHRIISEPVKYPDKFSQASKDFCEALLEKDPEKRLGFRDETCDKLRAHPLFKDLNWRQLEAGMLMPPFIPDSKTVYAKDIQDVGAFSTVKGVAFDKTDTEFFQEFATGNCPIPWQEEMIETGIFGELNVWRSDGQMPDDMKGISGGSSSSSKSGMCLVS

GRK5 = GRK5 (Homo sapiens, UniProt P34947); test: GRK5 kinase inhibition
Sequence of GRK5 (P34947 whole entry, species assumed): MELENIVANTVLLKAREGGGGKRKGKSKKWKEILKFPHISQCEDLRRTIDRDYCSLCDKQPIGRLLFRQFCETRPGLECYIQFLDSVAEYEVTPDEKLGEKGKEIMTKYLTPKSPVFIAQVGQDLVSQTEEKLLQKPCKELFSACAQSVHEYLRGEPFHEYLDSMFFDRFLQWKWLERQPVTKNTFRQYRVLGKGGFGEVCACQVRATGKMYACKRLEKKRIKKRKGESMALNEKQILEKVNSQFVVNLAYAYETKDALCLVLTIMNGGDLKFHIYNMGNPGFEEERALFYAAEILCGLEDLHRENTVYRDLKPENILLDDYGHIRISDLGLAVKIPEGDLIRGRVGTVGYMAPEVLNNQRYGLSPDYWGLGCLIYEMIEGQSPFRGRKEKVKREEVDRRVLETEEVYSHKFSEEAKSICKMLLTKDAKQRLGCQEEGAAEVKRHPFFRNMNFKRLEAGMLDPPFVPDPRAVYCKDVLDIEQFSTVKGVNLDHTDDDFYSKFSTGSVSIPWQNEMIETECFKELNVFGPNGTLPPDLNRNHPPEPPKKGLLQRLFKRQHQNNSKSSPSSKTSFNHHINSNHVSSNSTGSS

ROCK1 = ROCK1 (Homo sapiens, UniProt Q13464); test: ROCK1 inhibition, ADP-Glo Kinase Assay
Sequence of ROCK1 (Q13464 whole entry, species assumed): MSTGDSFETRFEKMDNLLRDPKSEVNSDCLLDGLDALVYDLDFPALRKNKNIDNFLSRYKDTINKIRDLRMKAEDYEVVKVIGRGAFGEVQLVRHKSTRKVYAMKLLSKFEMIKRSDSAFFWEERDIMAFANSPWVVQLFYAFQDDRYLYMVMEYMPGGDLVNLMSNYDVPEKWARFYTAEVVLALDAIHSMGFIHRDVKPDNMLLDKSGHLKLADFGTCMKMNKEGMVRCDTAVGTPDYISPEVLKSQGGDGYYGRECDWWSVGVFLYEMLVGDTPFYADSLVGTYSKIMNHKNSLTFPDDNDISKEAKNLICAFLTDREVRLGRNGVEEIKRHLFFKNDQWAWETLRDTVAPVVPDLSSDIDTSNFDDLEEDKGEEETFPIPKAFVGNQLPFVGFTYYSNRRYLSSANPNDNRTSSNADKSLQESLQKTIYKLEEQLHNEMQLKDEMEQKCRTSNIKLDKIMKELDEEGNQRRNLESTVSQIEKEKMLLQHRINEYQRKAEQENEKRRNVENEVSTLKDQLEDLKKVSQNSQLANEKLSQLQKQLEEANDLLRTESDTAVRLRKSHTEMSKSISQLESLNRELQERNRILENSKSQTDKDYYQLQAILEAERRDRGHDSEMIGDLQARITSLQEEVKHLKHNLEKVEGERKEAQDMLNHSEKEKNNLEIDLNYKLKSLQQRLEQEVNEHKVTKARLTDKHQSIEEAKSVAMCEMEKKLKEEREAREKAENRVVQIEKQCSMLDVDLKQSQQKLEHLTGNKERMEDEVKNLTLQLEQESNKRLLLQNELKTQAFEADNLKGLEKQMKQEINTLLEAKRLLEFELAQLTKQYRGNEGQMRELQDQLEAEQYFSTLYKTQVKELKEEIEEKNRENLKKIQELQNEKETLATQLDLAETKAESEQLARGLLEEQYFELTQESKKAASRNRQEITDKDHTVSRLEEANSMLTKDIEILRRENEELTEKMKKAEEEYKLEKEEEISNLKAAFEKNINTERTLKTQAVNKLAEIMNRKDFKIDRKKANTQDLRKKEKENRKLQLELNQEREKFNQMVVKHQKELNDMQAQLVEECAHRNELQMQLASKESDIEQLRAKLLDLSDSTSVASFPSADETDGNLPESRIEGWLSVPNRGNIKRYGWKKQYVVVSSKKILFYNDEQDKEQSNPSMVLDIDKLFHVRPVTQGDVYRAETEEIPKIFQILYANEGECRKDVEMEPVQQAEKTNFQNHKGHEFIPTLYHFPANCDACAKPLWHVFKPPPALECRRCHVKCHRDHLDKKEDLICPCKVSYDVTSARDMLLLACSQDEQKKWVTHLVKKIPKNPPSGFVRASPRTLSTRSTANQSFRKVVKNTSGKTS

[1] = system: cardiomyocytes isolated from adult mice; test: Contractility in mouse cardiomyocytes; settings: compared with lead 2; isoproterenol stimulation

Structure (SMILES): CC1=C(C(=O)Nc2ccc3[nH]ncc3c2)C(c2ccc(F)c(C(=O)NCc3c(Cl)cccc3Cl)c2)NC(=O)N1 (centres unmarked) [Compound 12l, 4-(3-((2,6-Dichlorobenzyl)carbamoyl)-4-fluorophenyl)-N-(1H-indazol-5-yl)-6-methyl-2-oxo-1,2,3,4-tetrahydropyrimidine-5-carboxamide]
- IC50 (PKA): > 100 µM
- selectivity for GRK2 over GRK1 (GRK1): over 770 fold
- selectivity for GRK2 over GRK5 (GRK5): over 770 fold

Structure (SMILES): CC1=C(C(=O)Nc2ccc3[nH]ncc3c2)C(c2ccc(F)c(C(=O)NCc3nccc4ccccc34)c2)NC(=O)N1 (centres unmarked) [Compound 12k, 4-(4-Fluoro-3-((isoquinolin-1-ylmethyl)carbamoyl)phenyl)-N-(1H-indazol-5-yl)-6-methyl-2-oxo-1,2,3,4-tetrahydropyrimidine-5-carboxamide]
- increase in GRK1 potency in comparison to 12h (GRK1): 50 fold
- IC50 (ROCK1): ~0.01 µM

Structure (SMILES): COc1cccc(OC)c1CNC(=O)c1cc(C2NC(=O)NC(C)=C2C(=O)Nc2ccc3[nH]ncc3c2)ccc1F (centres unmarked) [Compound 12n, 4-(3-((2,6-Dimethoxybenzyl)carbamoyl)-4-fluorophenyl)-N-(1H-indazol-5-yl)-6-methyl-2-oxo-1,2,3,4-tetrahydropyrimidine-5-carboxamide]
- IC50 (PKA): > 100 µM
- decrease in potency at GRK1 compared to 12e (GRK1): 6 fold
- decrease in potency at ROCK1 compared to 12e (ROCK1): over 175 fold
- inhibition of ROCK1 (ROCK1): no detectable inhibition
- potency at stimulating cardiomyocyte contraction [1]: equivalent to or slightly more potent than the lead 2
- decrease in potency at GRK5 compared to 12e (GRK5): 43 fold

— paper PMC4890168 (Journal of medicinal chemistry, 2016)
